The text below walks through data of ChEMBL document CHEMBL1857833, “Screening and optimization of specific chemical series against human African Trypanosomiasis (HAT)”.

The nature of series [1]: DNDI: Cytotoxicity against L929 mouse fibroblasts, 72 hour. Type of series: toxicity, cell-based. To be noted: mouse, L929 mouse fibroblasts.
In series [2] the test system is Trypanosoma brucei. Briefly: DNDI: Inhibition of Human African Trypanosomiasis, SBRI 427, in vitro. Type of series: functional, organism-based. The following applies: Trypanosoma brucei, SBRI 427; read-out: IC50.
Series [3] can be described thus: DNDI: Lipophilicity measured in Chromatographic hydrophobicity index (CHI) assay, pH 7.4. To be noted: buffer. The format is physicochemical.
Series [4] is described as follows: DNDI: half-life in mouse S9 microsomes at a concentration of 1uM. Type of series: ADME, subcellular, Liver, S9 fraction.
In series [5] the target is T1, MDR1 (ABCB1) (Homo sapiens, UniProt P08183). Briefly: DNDI: % of compound recovered from apical to basolateral permeability assay in MDCK cells transfected with human MDR1 after 60 mins at a concentration of 3uM. The format is ADME, cell-based, Canis lupus familiaris. The following applies: dog.
The target of series [6] is T1, MDR1 (ABCB1). Kind of series: DNDI: Apparent permeability from apical to basolateral side of the MDCK cell transfected with human MDR1after 60 mins at a concentration of 3uM. Type of series: ADME, cell-based, Canis lupus familiaris. The following applies: dog, MDCK-MDR1.
The target of series [7] is T1, MDR1 (ABCB1). Briefly: DNDI: % of compound recovered from membrane of apical to basolateral permeability assay in MDCK cells transfected with human MDR1 after 60 mins at a concentration of 3uM. Type of series: ADME, cell-based, Canis lupus familiaris. The following applies: dog, read-out: Mem Rec.
Series [8] has as its target T1, MDR1 (ABCB1). Kind of series: DNDI: % of compound recovered from apical to basolateral permeability assay in MDCK cells transfected with human MDR1 after 60 mins at a concentration of 3uM in the presence of GF120918. Type of series: ADME, cell-based, Canis lupus familiaris. To be noted: dog, MDCK-MDR1, with GF120918 (concentration not stated).
The target in series [9] is T1, MDR1 (ABCB1). Briefly: DNDI: % of compound recovered from membrane of apical to basolateral permeability assay in MDCK cells transfected with human MDR1 after 60 mins at a concentration of 3uM in the presence of GF120918. The format is ADME, cell-based, Canis lupus familiaris. To be noted: dog, MDCK-MDR1, with GF120918 (concentration not stated); read-out: Mem Rec.

Series [10] has as its target T1, MDR1 (ABCB1). Kind of series: DNDI: Efflux ratio for permeability from basolateral to apical side to apical to basolateral side of MDCK cells transfected with human MDR1. Type of series: ADME, cell-based, Canis lupus familiaris. The following applies: dog.
Series [11] can be described thus: DNDI: Solubility in phosphate buffered saline at pH7.4 measured by nephelometry at room temperature (NEPH-RT). Type of series: physicochemical. The following applies: pH 7.4.
Series [12] has as its system Trypanosoma brucei. Kind of series: DNDI: Mean survival time in days (MSD) of mice after intraperitoneal injection of Human African Trypanosomiasis (HAT), STIB 795, in vivo at 50 mg/kg/day for 4 days. Type of series: functional, Mus musculus.
For series [13], the system named is Trypanosoma brucei. Briefly: DNDI: Mean survival time in days (MSD) of mice after p.o. administration of Human African Trypanosomiasis (HAT), STIB 795, in vivo at 100 mg/kg/day for 4 days. The following applies: route oral. The format is functional, Mus musculus.
For series [14] the following is noted: mouse, microsomes, 1 µM.
Description: DNDI: in vitro intrinsic clearance in mouse liver microsomes at a concentration of 1uM
The nature of a further series: in vitro. The following applies: mouse, liver microsomes, t (1 / 2).
Another series relates to Trypanosoma cruzi. Briefly: DNDI: Inhibition of Chagas Disease parasite Trypanosoma cruzi (Tulahuen LacZ, Clone C4), in vitro. Type of series: functional, organism-based.
Series [15] in a line: DNDI: Cytotoxicity against L929 mouse fibroblasts, CYTO-SP, 24 hour. The format is toxicity, cell-based. The following applies: mouse, L929 mouse fibroblasts.
A short description of series [16]: DNDI: Cytotoxicity against L-6 rat myoblasts from skeletal muscle cells. To be noted: L-6 rat skeletal muscle myoblasts. Type of series: toxicity, cell-based, L6.
Series [17] has as its system Trypanosoma brucei rhodesiense. Kind of series: DNDI: Inhibition of Human African Trypanosomiasis (HAT), STIB 900, in vitro. The format is functional, organism-based.
Series [18] concerns Trypanosoma brucei. Kind of series: DNDI: Mean survival time in days (MSD) of mice after intraperitoneal injection of Human African Trypanosomiasis (HAT), EATRO 110, at 0.5 mg/kg/day for 4 days. Type of series: functional, Mus musculus.
The subject of series [19] is Trypanosoma brucei. Briefly: DNDI: Mean survival time in days (MSD) of mice after intraperitoneal injection of Human African Trypanosomiasis (HAT), EATRO 110, in vivo at 20 mg/kg/day for 4 days. Type of series: functional, Mus musculus.
For series [20], the system named is Trypanosoma brucei. Kind of series: DNDI: Mean survival time in days (MSD) of mice after intraperitoneal injection of Human African Trypanosomiasis (HAT), EATRO 110, in vivo at 1.25 mg/kg/day for 4 days. Type of series: functional, Mus musculus.
Series [21] has as its system Trypanosoma brucei. Kind of series: DNDI: Mean survival time in days (MSD) of mice after intraperitoneal injection of Human African Trypanosomiasis (HAT), EATRO 110, in vivo at 2.5 mg/kg/day for 4 days. Type of series: functional, Mus musculus.
Series [22] deals with Trypanosoma brucei. Briefly: DNDI: Mean survival time in days (MSD) of mice after intraperitoneal injection of Human African Trypanosomiasis (HAT), EATRO 110, in vivo at 12.5 mg/kg/day for 4 days. Type of series: functional, Mus musculus.
The subject of series [23] is Trypanosoma brucei. Briefly: DNDI: Mean survival time in days (MSD) of mice after intraperitoneal injection of Human African Trypanosomiasis (HAT), EATRO 110, in vivo at 5 mg/kg/day for 4 days. Type of series: functional, Mus musculus.
A further series has as its system Leishmania donovani. Briefly: DNDI: Inhibition of formation of Leishmania donovani (strain MHOM/ET/67/L82) axenic amastigotes, in vitro. Type of series: functional, organism-based.
Another series has as its system Plasmodium falciparum. Briefly: DNDI: Inhibition of the malaria parasite Plasmodium falciparum, in vitro. Type of series: functional, organism-based. The following applies: K1.
Series [24] can be described thus: DNDI: half life in human liver microsomes at a concentration of 10uM. The format is ADME, Microsome. For orientation: Microsomes from liver hold many membrane-bound enzymes, among them those of drug oxidation.
The nature of series [25]: DNDI: in vitro intrinsic clearance in human liver microsomes at a concentration of 10uM. The format is ADME, Microsome.
The nature of series [26]: DNDI: in vitro intrinsic clearance in mouse liver microsomes at a concentration of 10uM. The following applies: read-out: CLint in vitro. Type of series: ADME, Microsome.
Series [27] is described as follows: DNDI: half life in mouse liver microsomes at a concentration of 10uM. Type of series: ADME, Microsome.
Series [28] is described as follows: DNDI: Solubility in phosphate buffered saline at pH7.4 measured by optical density (turbidimetry) at room temperature (OD-RT). Type of series: physicochemical. The following applies: pH 7.4.
The test system of series [29] is Trypanosoma brucei. Kind of series: DNDI: Inhibition of Human African Trypanosomiasis, EATRO 110, in vitro. The format is functional, organism-based.
The target of series [30] is T1, MDR1 (ABCB1). Briefly: DNDI: % of compound recovered from apical to basolateral permeability assay in MDCK cells transfected with human MDR1. Type of series: ADME, cell-based, Canis lupus familiaris. The following applies: dog.
Series [31] concerns the target T1, MDR1 (ABCB1). Kind of series: DNDI: Apparent permeability from apical to basolateral side of the MDCK cell transfected with human MDR1. To be noted: dog. Type of series: ADME, cell-based, Canis lupus familiaris.
Series [32] addresses T1, MDR1 (ABCB1). Briefly: DNDI: Apparent permeability from basolateral to apical side of the MDCK cell transfected with human MDR1 after 60 mins at a concentration of 3uM. Type of series: ADME, cell-based, Canis lupus familiaris. To be noted: dog.
Series [33] deals with T1, MDR1 (ABCB1). Briefly: DNDI: % of compound recovered from basolateral to apical permeability assay in MDCK cells transfected with human MDR1. Type of series: ADME, cell-based, Canis lupus familiaris. To be noted: dog.

Values after ≈ are worked out from the molar mass of the structure shown.

T1 sequence (P08183 whole entry): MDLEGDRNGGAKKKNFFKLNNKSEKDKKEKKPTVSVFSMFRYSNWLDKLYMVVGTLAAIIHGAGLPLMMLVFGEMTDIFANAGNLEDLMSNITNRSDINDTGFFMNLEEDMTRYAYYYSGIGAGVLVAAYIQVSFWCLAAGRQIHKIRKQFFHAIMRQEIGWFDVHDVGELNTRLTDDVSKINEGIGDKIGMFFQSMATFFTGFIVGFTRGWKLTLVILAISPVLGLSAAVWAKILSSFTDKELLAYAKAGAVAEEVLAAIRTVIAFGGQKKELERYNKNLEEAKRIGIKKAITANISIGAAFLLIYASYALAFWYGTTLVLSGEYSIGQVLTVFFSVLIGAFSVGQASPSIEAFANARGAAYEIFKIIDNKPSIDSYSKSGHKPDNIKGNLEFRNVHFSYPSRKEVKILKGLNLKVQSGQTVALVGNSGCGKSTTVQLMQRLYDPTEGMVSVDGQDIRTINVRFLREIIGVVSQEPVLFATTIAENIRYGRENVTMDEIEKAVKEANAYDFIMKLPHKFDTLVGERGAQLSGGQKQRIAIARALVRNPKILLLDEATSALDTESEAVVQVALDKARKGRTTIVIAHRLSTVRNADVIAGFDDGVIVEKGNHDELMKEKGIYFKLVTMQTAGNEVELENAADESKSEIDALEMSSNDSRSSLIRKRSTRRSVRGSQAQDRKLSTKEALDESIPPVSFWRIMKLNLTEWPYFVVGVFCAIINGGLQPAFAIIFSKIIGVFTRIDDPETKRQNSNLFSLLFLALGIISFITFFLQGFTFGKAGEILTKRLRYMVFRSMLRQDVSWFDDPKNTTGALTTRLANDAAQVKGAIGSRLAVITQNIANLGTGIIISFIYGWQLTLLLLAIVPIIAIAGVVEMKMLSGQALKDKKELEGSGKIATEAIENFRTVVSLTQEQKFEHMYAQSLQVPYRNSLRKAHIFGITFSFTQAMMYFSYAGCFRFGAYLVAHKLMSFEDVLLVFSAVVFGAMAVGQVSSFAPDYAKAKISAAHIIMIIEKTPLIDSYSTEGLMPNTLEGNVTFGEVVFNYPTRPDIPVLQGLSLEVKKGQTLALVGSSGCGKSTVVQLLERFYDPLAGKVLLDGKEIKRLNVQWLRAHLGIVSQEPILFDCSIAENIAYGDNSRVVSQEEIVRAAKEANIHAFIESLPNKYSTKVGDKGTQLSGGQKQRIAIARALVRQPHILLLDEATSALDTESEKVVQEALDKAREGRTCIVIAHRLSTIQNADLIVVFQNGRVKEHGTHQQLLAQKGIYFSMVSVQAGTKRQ
Description for in vitro: DNDI: half life in mouse liver microsomes at a concentration of 1uM

As to `CC(C)(C)c1cc(N2CCNCC2)n2nc(-c3ccc(F)cc3)cc2n1`, in series [1], the IC50 at 72 h was 2.75 µg/mL (≈ 7.78 µM). Further, the concentration for half-maximal inhibition (IC50) in the series with Trypanosoma brucei [2] worked out at 1.11 µg/mL (≈ 3.14 µM). Also, the chromatographic logD in [3] was 4.15. In series [4], the half-life at 1 µM was over 350 min. Moreover, the recovery at 1 h, 3 µM on MDR1 (ABCB1) [5] worked out at 103%; on MDR1 (ABCB1) [7], 88.4%; on MDR1 (ABCB1) [8] it was 91%; on MDR1 (ABCB1) [9], 76.1%. Further, the apparent permeability from apical to basolateral (Papp A→B) at 1 h, 3 µM on MDR1 (ABCB1) [6] was determined as 10.3 ×10⁻⁶ cm/s. In addition, the efflux ratio on MDR1 (ABCB1) [10] (MDCK-MDR1, read-out: Calculated Ratio) was 0.08. Moreover, the solubility (kinetic) in series [11] amounted to 50 µM (≈ 17.7 µg/mL).

In turn, `CCCCc1ccc(-c2nc(CNCCCN(C)C)co2)cc1` registered an IC50 at 72 h in series [1] of 1.4 µg/mL (≈ 4.44 µM). For the same compound, the IC50 in the series with Trypanosoma brucei [2] was 0.07 µg/mL (≈ 0.222 µM). The MSD in the series on Trypanosoma brucei [12] and in the series on Trypanosoma brucei [13] was 7 days throughout. The compound further showed a chromatographic logD in series [3] of 5.07. Also, the solubility (kinetic) in series [11] was under 1 µM. Also, the CLint in vitro in series [14] is 9 µL/min/mg. In addition, the half-life at 1 µM in “in vitro” is 96 min.

In the case of `COc1ccc(/C(=N/O)NC2CCCCC2)cc1`, the IC50 in the series on Trypanosoma cruzi is over 30 µg/mL; in series [16] it was 58.3 µg/mL (≈ 235 µM); in the series on Trypanosoma brucei [2], 0.61 µg/mL (≈ 2.46 µM); in [17] it was 18.3 µg/mL (≈ 73.7 µM); in the series on Leishmania donovani, 11.9 µg/mL (≈ 48 µM); in the series with Plasmodium falciparum, 4.7 µg/mL (≈ 18.9 µM). Besides, the half-inhibitory concentration (IC50) at 24 h in [15] is over 50 µg/mL. Moreover, in series [1], the half-maximal inhibitory concentration (IC50) at 72 h is over 10 µg/mL. Also, the MSD was 4 days in the series with Trypanosoma brucei [18]; 4.6 days in the series with Trypanosoma brucei [19]; 4 days with Trypanosoma brucei [20]; 4 days with Trypanosoma brucei [21]; 4 days with Trypanosoma brucei [22]; 4.3 days with Trypanosoma brucei [23]. In [3], this compound displayed a chromatographic logD of 3.82. For the same compound, the half-life at 10 µM in series [24] came to 76 min; in series [27], 5 min. The CLint in vitro in [25] was found to be 38 µL/min/mg; in series [14], 329 µL/min/mg. Further, in [26], the microsomal CLint at 10 µM is 544 µL/min/mg. The solubility (kinetic) in series [28] stood at 50 µM (≈ 12.4 µg/mL). The compound also had a half-life at 1 µM in “in vitro” of 3 min.

Consider `COc1ccccc1Oc1ncccc1/C(=N\O)NC1CCCCC1`, for which the concentration for half-maximal inhibition (IC50) at 24 h in series [15] was over 50 µg/mL. The figures for the half-inhibitory concentration (IC50) with Trypanosoma brucei [29] and in the series with Trypanosoma brucei [2] were 1.56 µg/mL (≈ 4.57 µM) and 0.78 µg/mL (≈ 2.28 µM), respectively. Moreover, the MSD came to 4 days in the series on Trypanosoma brucei [18]; 4.3 days in the series on Trypanosoma brucei [19]; 4 days in the series with Trypanosoma brucei [20]; 4 days in the series on Trypanosoma brucei [21]; 4 days in the series on Trypanosoma brucei [22]; 4 days in the series on Trypanosoma brucei [23]. The compound also showed a chromatographic logD in [3] of 3.77. For the same compound, the microsomal CLint at 10 µM in series [26] came to 138 µL/min/mg. The compound also yielded a half-life at 10 µM in series [27] of 21 min. Also, the recovery worked out at 77% at MDR1 (ABCB1) [30] and 84% on MDR1 (ABCB1) [33]. The apparent permeability from apical to basolateral (Papp A→B) at MDR1 (ABCB1) [31] was found to be 18.4 ×10⁻⁶ cm/s. Moreover, on MDR1 (ABCB1) [32], the Papp B→A at 1 h, 3 µM was determined as 48.3 ×10⁻⁶ cm/s. Further, the efflux ratio on MDR1 (ABCB1) [10] (read-out: B-A/A-B) worked out at 2.6. In [28], this compound came in with a solubility (kinetic) of 25 µM (≈ 8.54 µg/mL).

As usually defined, the IC50 is the point on the concentration scale where inhibition reaches its midpoint. One may read the chromatographic logD as a lipophilicity value derived from retention on a column. In general, half-life refers to the time in which the quantity being followed falls by half. Lower therefore signals rapid decline. For orientation: Papp A→B means how fast a substance crosses the layer from the apical side. As a reminder, the kinetic solubility is the concentration staying in solution when a stock, usually in DMSO, is diluted into the medium. A word on the Papp B→A: it is how fast a substance crosses the layer from the basolateral side.
